Key:
WI38 = experiment: Crystal violet viability assay, WI38; assay type: cell-based; parameters: key: score 0- no effect-white; score 6- as or more effective than positive control- black; conditions: score 0-6 compared to positive control, 48 h
Experimental: (§1) Cells were cultured in 96 wells plates with 2500-4000 cells/well. Serial dilutions of different peptides were added and the plates incubated for additional 48 h at 37°C. Then medium was removed and cell viability was determined by staining the cells with crystal violet (0.05%) in methanol/PBS (1:5, v/v), for 10 min, followed by 3 washes with PBS. 10% acetic acid was added to each well for 10 min. OD was determined at 595 nm.

ES2 ovarian cancer cells = experiment: Crystal violet viability assay, ES2; assay type: cell-based, human; parameters: key to Viability ES2: score 0- no effect-white; score 6- as or more effective than positive control- black; conditions: score 0-6 compared to positive control, 48 h
Experimental: Cell extracts were added to ELISA plates coated with the indicated antibodies to allow mutp53 to react with the peptides and antibodies. αp53-HRP Ab was used for assessment of p53 levels. Numbers represent ratio of absorbance between the PAb1620 and PAb240 samples. All reads were normalized to the control […] reading of each extract. MCF7 (WTp53) and H1299-mutp53^A135V (tsp53) cells were used as positive controls for the WTp53 conformation (1620/240 ratio equals or exceeds 5:1). […] 96 well plates were coated with anti-p53 antibody, cell extracts containing p53 were reacted with oligonucleotides that contain a p53RE consensus binding site, labeled with biotin, in the presence or absence (NT) of test peptides. Streptavidin-HRP is used to quantify the amount of oligos in the well. TMB assay was performed to determine bound mutp53 levels (450nm). MCF7 and the H1299-mutp53^A135V(TS) cells serve as positive controls for WTp53. C.and D. - Bar graphs illustrating the effect of various selected peptides on mut-p53 dependent expression on cell viability. […] D, ES2 cells expressing endogenous mutp53 (blue bars) and ES2 cells knocked out for p53 by CRISPR construct (light blue bars). Cell lines were treated with selected peptides, Cis-platinum was used as positive control for cell death. 48 hours after treatment, cells were washed with PBS, and the remaining attached cells were stained with Crystal violet and washed 4 times with PBS. Stained cells were dissolved in 10% acetic acid and plates were taken for optical density measurement at […]. TEXT PRINTED IN THE PICTURE: (A) pCAP1: 0.87 | (A) pCAP2: 0.53 | (A) pCAP3: 0.59 | (A) pCAP4: 0.59 | (A) pCAP5: 0.60 | (A) pCAP6: 0.75 | (A) pCAP23: 1.06 | (A) pCAP24: 1.44 | (A) pCAP36: 1.25 | (A) pCAP47: 1.54 | (A) pCAP54: 1.54 | (A) pCAP60: 2.73 | (A) pCAP68: 2.22 | (A) pCAP83: 1.56 | (A) pCAP97: 2.45 DOUBTS OF THE COPYIST ABOUT THIS PICTURE: Panel A: the numbers over the bars are printed very small, rotated and blurred, so 3, 5, 6, 8 and 9 cannot be told apart with certainty. All values are best readings: pCAP1 0.87, pCAP2 0.53, pCAP3 0.59, pCAP4 0.59, pCAP5 0.60, pCAP6 0.75, pCAP23 1.06, pCAP24 1.44, pCAP36 1.25, pCAP47 1.54, pCAP54 1.54, pCAP60 2.73, pCAP68 2.22, pCAP83 1.56, pCAP97 2.45 / Panel A: the picture prints no measure with the numbers over the bars, so they are given as bare numbers / Panel A: numbers are also printed over the controls, which are not substances and are left out of lines. Best readings: NT 0.60, 60° 30'' 0.48, 60° 1' 0.37, 60° 3' 0.13, 60° 10' 0.05, MCF7 3.32, H1299TS 3.25
(§2) We also performed a similar analysis on ES2 ovarian cancer cells, which express endogenous mp53^S241F, compared to ES2 cells in which p53 was stably knocked out using CRISPR/Cas9 (ES2 p53KO Figure S1F), to control for specificity for mutp53 (Figure 2D). In ES2 cells, too, some of the peptides caused a significant reduction in cell numbers, more prominent in the mutp53 expressing cells than in their p53KO counterparts. […] Overall, we performed this analysis on several different mutp53-expressing human cancer cell lines, and the results are summarized in Table S3. Based on this comprehensive picture, we reduced the number of most promising candidate lead peptides to 30. These peptides were then synthesized with an 8 arginine C-terminal tail for enhanced delivery across cell membranes (pCAPs 130-160); for clarity, peptides are referred to by their original number, with an R for poly arginine (see Table S3).
as §1

SK3 = experiment: Crystal violet viability assay, SK3; assay type: cell-based, human; conditions: score 0-6 compared to positive control, 48 h
Excerpt: as §2, §1

mutp53 = experiment: Summary score of peptide functional screens; conditions: overall score over conformation, DNA binding, viability and PCR screens
EP156 = experiment: Crystal violet viability assay, EP156; assay type: cell-based; conditions: score 0-6 compared to positive control, 48 h
Excerpt: as §2, §1

[1] = tested on: H1299 cells expressing mutp53^R175H; experiment: Crystal violet viability assay, H1299; assay type: cell-based; conditions: score 0-6 compared to positive control, 48 h
Experimental: Cell extracts were added to ELISA plates coated with the indicated antibodies to allow mutp53 to react with the peptides and antibodies. αp53-HRP Ab was used for assessment of p53 levels. Numbers represent ratio of absorbance between the PAb1620 and PAb240 samples. All reads were normalized to the control PAb241 reading of each extract. MCF7 (WTp53) and H1299-mutp53^A135V (tsp53) cells were used as positive controls for the WTp53 conformation (1620/240 ratio equals or exceeds 5:1). […] 96 well plates were coated with anti-p53 antibody, cell extracts containing p53 were reacted with oligonucleotides that contain a p53RE consensus binding site, labeled with biotin, in the presence or absence (NT) of test peptides. Streptavidin-HRP is used to quantify the amount of oligos in the well. TMB assay was performed to determine bound mutp53 levels (450nm). MCF7 and the H1299-mutp53^A135V(TS) cells serve as positive controls for WTp53. C.and D. - Bar graphs illustrating the effect of various selected peptides on mut-p53 dependent expression on cell viability. […] D, ES2 cells expressing endogenous mutp53 (blue bars) and ES2 cells knocked out for p53 by CRISPR construct (light blue bars). Cell lines were treated with selected peptides, Cis-platinum was used as positive control for cell death. 48 hours after treatment, cells were washed with PBS, and the remaining attached cells were stained with Crystal violet and washed 4 times with PBS. Stained cells were dissolved in 10% acetic acid and plates were taken for optical density measurement at 595nM.
This simple assay measures the total number of cells, thus reflecting the combination of both cell death and growth arrest effects. […] After 48 hours of treatment cells were stained with crystal violet and OD at 595nm was determined.
Values on the Y-axis reflect the number of cells in the treated wells, normalized to the non-treated samples (NT; red bars).

myr-RRKHNKHRPEPDSDER [pCAP-221]
Viability WI38 (WI38): 6 | Viability ES2 (ES2 ovarian cancer cells): 6 | Viability SK3 (SK3): 5 | SCORE (mutp53): 58 | Viability EP156 (EP156): 5 | Viability H1299 [1]: 2
